# Experimental data published in ChEMBL document CHEMBL1156829 (Proc Natl Acad Sci U S A, 2008).
# Columns and labels:
# Plasmodium falciparum [1] = assay: NOVARTIS: Inhibition of Plasmodium falciparum 3D7 (drug-susceptible) proliferation in erythrocyte-based infection assay; assay type: functional, organism-based; conditions: Plasmodium falciparum, 3D7
# Plasmodium falciparum [2] = assay: NOVARTIS: Inhibition of Plasmodium falciparum W2 (drug-resistant) proliferation in erythrocyte-based infection assay; assay type: functional, organism-based; conditions: Plasmodium falciparum, W2; read-out: EC50
# [3] = NOVARTIS: Cytotoxicity against human hepatocellular carcinoma cell line (Huh7); assay type: toxicity, cell-based, Huh-7; conditions: Huh7 cells (hepatocellular carcinoma cell line)
SMILES,EC50 (Plasmodium falciparum [1]) [nM],EC50 (Plasmodium falciparum [2]) [nM],CC50 [3] [nM]
CC1=NN(c2ccc(C(=O)O)cc2)C(=O)/C1=C\c1ccc([N+](=O)[O-])o1,> 1250,> 839,> 10000
COc1ccc(C(=O)C2CC2c2ccc(Cl)cc2)cc1 (centres undefined),217,1420,> 100000
CC1=C(C(=O)OC2CCCC2)C(c2ccc(Cl)cc2)C2=C(CC(c3ccc(Cl)cc3)CC2=O)N1 (centres undefined),2590,487,> 100000
C=C[C@H]1CN2CC[C@H]1C[C@H]2[C@H](OC(=O)CCC)c1ccnc2ccccc12,335,286,> 10000
O=C(NCCCCCCCCCCNC(=O)Nc1ccc(C2=NCCCN2)cc1)Nc1ccc(C2=NCCCN2)cc1,54.2,69.3,> 10000
Cc1cccc(C)c1OCC(=O)Nc1ccccc1O,742,1360,> 100000
CC(=O)N(C1=C(N2CCOCC2)C(=O)c2ccccc2C1=O)c1ccc(Br)cc1,239,200,19100
N#C/C(=C\c1ccc(Sc2ccccc2)o1)c1nc2ccccc2[nH]1,1510,947,> 10000
CSC1=NC(=Nc2ccccc2C)C2(CCC(C(C)(C)C)CC2)N1c1ccc(O)cc1 (centres undefined),243,208,> 10000
CCOC(=O)c1sc(NC(=O)CSc2nnc(CNC(=O)c3ccco3)n2-c2ccc(F)cc2)c(C(=O)OCC)c1C,> 1250,> 1060,> 10000
Oc1cccc(C=Nc2ccccc2)c1O,360,435,> 10300
COc1ccccc1N(CC(=O)N1CCCCC1)S(=O)(=O)c1ccccc1,> 1250,> 1070,> 10000
C[C@@H]1C[C@@H]([C@H](O)CC2CC(=O)NC(=O)C2)C(=O)[C@@H](C)C1 [CYCLOHEXIMIDE],114,182,> 100000
Cc1cc(C(=O)N2CCOc3c(cc(-c4csc5ccccc45)cc3OCCc3ccccn3)C2)n(C)n1,32.5,13.9,46900
O=C1C2CN(C(=O)Nc3ccccc3)C(c3ccc(Cl)cc3)C2C(=O)N1c1ccccc1 (centres undefined),> 1250,> 958,> 10000
c1ccc(CCc2nc3cccnc3n2C2CCN(C3CCN(Cc4ccccc4)CC3)CC2)cc1,153,175,81400
CC[n+]1c(/C=C/c2ccc(Cl)cc2)ccc2ccccc21,60.8,< 8.16,> 10000

SMILES,EC50 (Plasmodium falciparum [1]) [nM],EC50 (Plasmodium falciparum [2]) [nM],CC50 [3] [nM]
CC(C)c1cccc(C(C)C)c1NC(=O)N(Cc1ccccc1)C(C)c1nc2ccccc2c(=O)n1-c1ccccc1 (centres undefined),1310,738,> 10000
O[C@@]1(c2cc3ccccc3s2)CN2CCC1CC2,177,101,> 10000
COCCCNc1nc2nonc2nc1N(C)C1CCOCC1,> 682,> 1250,> 10000
CCOc1ccccc1C1C(C#N)=C(SCC(=O)Nc2ccc(Cl)cc2)NC(C)=C1C(=O)Nc1ccccc1 (centres undefined),352,107,> 100000
O=C(Nc1ccc(F)c(F)c1)c1ccccc1[N+](=O)[O-],> 903,1060,> 10000
Ic1nc2ccccc2s1,> 295,1350,> 10000
COc1ccc(Nc2nc(N3CCCC3)c3ccccc3n2)cc1,284,334,10200
CCCNC(=O)c1ccc(OC2CCN(CC3CCCCC3)CC2)c(Cl)c1,287,181,42400
C[C@H](Nc1cncc(-c2cccc(OC(F)(F)F)c2)n1)c1ccccc1,> 264,1180,> 10000
CCCCN1C=Nc2cc(C(=O)NCc3ccc(OC)cc3)ccc2C1,463,243,> 10000
CC1=C(C(=O)OC2CCCC2)C(c2ccccc2F)C2=C(CC(c3ccccc3)CC2=O)N1 (centres undefined),541,259,> 100000
Cc1c(/C=C2\SC(=Nc3ccccc3F)N(C3CCCCC3)C2=O)c2ccccc2n1CC(N)=O,301,961,> 100000
COc1ccc(S(=O)(=O)N2CCN(C(=S)NC3CCCCC3)CC2)cc1,8540,1000,> 100000
CN(Cc1ccccc1)c1nc2c(c(=O)[nH]c(=O)n2C)n1CCCSc1ncccn1,> 12500,5190,> 100000
CC(=O)N(C1=C(N2CCCC2)C(=O)c2ccccc2C1=O)c1cccc(F)c1,406,323,29000
CC(C)(C)C(=O)NCCNc1ccc([N+](=O)[O-])cc1C(F)(F)F,2260,1110,> 100000
